Reference: patent publication US4310348A, “Plant growth regulating compositions” (priority 1978, dated 1982)
“Also recorded” adds a separate entry of the source.

How the values were obtained:
[1] = system: Sorghum; test: greenhouse pre-emergent treatment, green weight, sorghum (Table 2); assay type: in vivo; conditions: 4-week-old plants
Experimental: (§1) (a2) Seeds of bean, carrot, flax, green pepper, tomato, spinach, barley and sorghum were sown into cultivation pots (20×20 cm) filled with sand. The cultivation pots were placed in a greenhouse, and treated prior to plant emergence with 0.1 or 0.2 kg of racemic active agent/hectare. The green weights of the 4-week-old plants were measured, and the data were compared to those observed with the untreated controls.

[2] = system: corn; test: greenhouse test, plant growth promoting effect on corn from dressed seeds (Table 1); assay type: in vivo
Experimental: (§2) 6 parts by weight of a 10% acetone solution of (±)-2-(propargyloxyimino)-1,7,7-trimethyl-bicyclo[2,2,1]heptane are added under stirring to a solution containing 30 parts by weight of acetone, 2.5 parts by weight of hydroxypropyl cellulose, 5 parts by weight of polyethylene glycol (molecular weight: 6000), 20 parts by weight of water and an arbitrary amount of a dyestuff having no germination-inhibiting effect.
(§3) (a1) Three cultivation pots were filled with sand, and 30 corn seeds each were sown. 10 of the seeds were not dressed (untreated controls), 10 of the seeds were dressed with a dressing agent described in Example 10 but containing no active agent (placebo), whereas the remaining 10 seeds were dressed with a dressing agent prepared according to Example 10 containing racemic active agent. The cultivation pots were placed in a greenhouse, and the temperature, light and atmospheric humidity of the greenhouse were maintained at optimum. The percentage of germinating seeds was determined, and on the 14th and 28th days after sowing the height and green weight of the emerged plants were measured. The results of the test are summarized in Table 1, in which the percentage of germination is related to the number of seeds sown, whereas the heights and green weights of the plants are given in percentages related to the untreated controls.

[3] = system: Flax; test: greenhouse pre-emergent treatment, green weight, flax (Table 2); assay type: in vivo; conditions: 4-week-old plants
Experimental: as §1

[4] = system: corn; test: open-air test on small parcels, pre- or post-emergent spraying of corn (Table 4); assay type: in vivo; conditions: for Ear yield / Green weight / Height: untreated = 100
Experimental: 10 parts by weight of (±)-2-(propargyloxyimino)-1,7,7-trimethyl-bicyclo[2,2,1]heptane are dissolved in 9 parts by weight of xylene, and 1 part by weight of a mixture of an anionic and a non-ionic surfactant (e.g. a 2:3 mixture of Atlox 3386 and Atlox 4851) is added to the solution. The mixture is homogenized. An emulsifiable concentrate containing 50% by weight of active agent (50 EC) is obtained, which can be diluted with water to form a spray liquid.
Corn seeds were sown in small (10×10 m) parcels, and the parcels were treated prior to or after plant emergence with an aqueous spray liquid prepared from the emulsifiable concentrate described in Example 8. The concentrate was diluted with rain water to a final active agent content of 0.02 to 0.1%, depending on the dosage applied, and 500 liters/hectare of the spray liquid were applied. The dosages examined in the pre-emergent treatments varied between […] of racemic active agent/hectare, whereas in the post-emergent treatment a dosage of 1 kg of racemic active agent/hectare was applied. The parcels were hoed in order to remove weeds.

[5] = system: Bean; test: greenhouse pre-emergent treatment, green weight, bean (Table 2); assay type: in vivo; conditions: 4-week-old plants
Experimental: as §1

[6] = system: corn; test: open-air test on small parcels with dressed corn seeds (Table 3); assay type: in vivo
Experimental: as §2, §3
The procedure described in point (a) was repeated with the difference that the seeds were sown in a 10×10 m parcel, the plants were kept under observation for the whole growth season, and the crop yield was also determined. The parcel was hoed in order to remove weeds.

[7] = system: dried bean beetle (Acanthoscelides obtectus); test: protection against dried bean beetle on treated bean seeds (Table 8); assay type: in vivo
Experimental: (b) 100 g of bean seeds each were treated with a spray liquid containing 1.0% by weight of racemic active agent (prepared by diluting an emulsifiable concentrate containing 50% by weight of active agent) in an amount corresponding to 250, 500 and 1000 ppm of active agent, respectively. The control seeds were not treated. The seeds were put into small cylindrical flasks. 20 insects each were placed in the flasks, and the flasks were covered with a cloth. After 14 days the survivors were counted.

[8] = system: Carrot; test: greenhouse pre-emergent treatment, green weight, carrot (Table 2); assay type: in vivo; conditions: 4-week-old plants
Experimental: as §1

[9] = system: Tomato; test: greenhouse pre-emergent treatment, green weight, tomato (Table 2); assay type: in vivo; conditions: 4-week-old plants
Experimental: as §1

[10] = system: Barley; test: greenhouse pre-emergent treatment, green weight, barley (Table 2); assay type: in vivo; conditions: 4-week-old plants
Experimental: as §1

[11] = system: Spinach; test: greenhouse pre-emergent treatment, green weight, spinach (Table 2); assay type: in vivo; conditions: 0.1 kg/ha, 4-week-old plants
Experimental: as §1

[12] = acute oral toxicity (LD50) on white rats; conditions: rat, in vivo; white rats, oral administration
Source text: (§4) Therefore, the new compound of the formula (I) can be utilized to advantage as insecticidal agent for controlling granarial insect pests and insects attacking ornamental plants, indoor plants and vegetables.

[13] = system: housefly (Musca domestica) larvae; test: insecticidal activity, protection against housefly larvae (Table 6); assay type: in vivo; conditions: for Development: in relation to the control
Experimental: 1 kg of wheat barn was admixed with 1 liter of milk, 10 g of fodder yeast and 6 g of Nipagin (ethyl p-hydroxybenzoate) to obtain a culture medium for the cultivation of housefly larvae. 200 g each of the above culture medium were put into small cylindrical flasks, and racemic active agent was added so that the active agent content of the culture medium was 250, 500 and 1000 ppm, respectively. The racemic active agent was introduced in the form of an emulsifiable concentrate containing 50% by weight of the compound concerned, and the culture medium was homogenized with the concentrate. No active agent was introduced into the control flask. 50 one-day-old housefly larvae each were placed in the cylindrical flasks, the flasks were covered with a cloth ensuring good ventilation, and the percentage of images developing from the pupae was determined in relation to the control.

[14] = system: Green pepper; test: greenhouse pre-emergent treatment, green weight, green pepper (Table 2); assay type: in vivo; conditions: 4-week-old plants
Experimental: as §1

[15] = system: houseflies (Musca domestica); test: insecticidal activity, protection against houseflies (Table 5); conditions: in vivo
Experimental: (§5) The emulsifiable concentrate described in Example 8 was diluted with water to a final active agent content of 3% by weight, and an amount corresponding to 2.5 mg of racemic active agent/cm^2 of plane area of the resulting spray liquid was filled into a cylindrical flask. 20 flies, anaesthetized with carbon dioxide, were placed in the flask, the flask was covered with a Petri dish, and the effect of the active agent was observed. In the control test the same dosage of dichlorphon (O,O-dimethyl-2,2-dichlorovinyl phosphate) was applied as active agent.

[16] = system: cholinesterase; test: cholinesterase blocking effect; assay type: biochemical
[17] = system: dried bean beetle (Acanthoscelides obtectus); test: protection against dried bean beetle, procedure of Example 13(a) (Table 7); assay type: in vivo; conditions: compared with dichlorphon
Experimental: as §5
Protection against dried bean beetle (Acanthoscelides obtectus)

[18] = system: white rats; test: acute oral toxicity (LD50) on white rats; conditions: rat, in vivo
Source text: as §4

[19] = 14th day after sowing, related to untreated controls
[20] = 28th day after sowing, related to untreated controls
[21] = post-emergent, 1.0 kg of active agent/hectare
[22] = pre-emergent, 0.1 kg of active agent/hectare
[23] = pre-emergent, 1.0 kg of active agent/hectare
[24] = pre-emergent, 3.0 kg of active agent/hectare
[25] = pre-emergent, 5.0 kg of active agent/hectare
[26] = dressed seeds, open air, untreated control = 100

Compound: C#CCON=C1CC2CCC1(C)C2(C)C (racemic) [racemic active agent, (±)-2-(propargyloxyimino)-1,7,7-trimethyl-bicyclo[2,2,1]heptane]
- Green weight in relation to the controls ([1]; 0.1 kg/ha): 130%
- Green weight in relation to the controls ([1]; 0.2 kg/ha): 130%
- 14th day Green weight [2, 19]: 152%
- 14th day Height [2, 19]: 143%
- 28th day Green weight [2, 20]: 154%
- 28th day Height [2, 20]: 148%
- Germination ([2]; dressed corn seeds, greenhouse, related to number of seeds sown): 95%
- Green weight in relation to the controls ([3]; 0.1 kg/ha): 118%
- Green weight in relation to the controls ([3]; 0.2 kg/ha): 105%
- Ear yield [4, 21]: 109%
- Green weight [4, 21]: 120%
- Height [4, 21]: 116%
- post-emergent results compared with pre-emergent, same dosage (in words) ([4]; post-emergent, 1 kg/hectare): slightly inferior to the former ones
- Ear yield [4, 22]: 102%
- Green weight [4, 22]: 108%
- Height [4, 22]: 105%
- effectiveness in pre-emergent treatment (in words) ([4]; pre-emergent, 0.1 kg/hectare): effective even in a dosage of 0.1 kg/hectare
- Ear yield [4, 23]: 118%
- Green weight [4, 23]: 127%
- Height [4, 23]: 121%
- Ear yield [4, 24]: 116%
- Green weight [4, 24]: 135%
- Height [4, 24]: 127%
- Ear yield [4, 25]: 107%
- Green weight [4, 25]: 115%
- Height [4, 25]: 115%
- Green weight in relation to the controls ([5]; 0.1 kg/ha): 110%
- Green weight in relation to the controls ([5]; 0.2 kg/ha): 135%
- corn higher by (in comparison with the two controls) ([6]; Table 3): 27%
- ear yield greater by (in comparison with the two controls) ([6]; Table 3): 20%
- green weight higher by (in comparison with the two controls) ([6]; Table 3): 25%
- Ear yield [6, 26]: 120%
- Green weight [6, 26]: 125%
- Height [6, 26]: 127%
- survival at 250 ppm ([7]; Acanthoscelides obtectus, 336 h, 250 ppm, after 14 days, percentage of the control, read-out: Survivors): 5%
- survival at 500 ppm ([7]; Acanthoscelides obtectus, 336 h, 500 ppm, after 14 days, percentage of the control, read-out: Survivors): 0%
- survival at 1000 ppm ([7]; Acanthoscelides obtectus, 336 h, 1000 ppm, after 14 days, percentage of the control, read-out: Survivors): 0%
- killing of granarial insect pests such as dried bean beetle (in words) ([7]; even in a concentration of 250 ppm): can be applied successfully to kill granarial insect pests
- Green weight in relation to the controls ([8]; 0.1 kg/ha): 105%
- Green weight in relation to the controls ([8]; 0.2 kg/ha): 140%
- Green weight in relation to the controls ([9]; 0.1 kg/ha): 120%
- Green weight in relation to the controls ([9]; 0.2 kg/ha): 112%
- Green weight in relation to the controls ([10]; 0.1 kg/ha): 120%
- Green weight in relation to the controls ([10]; 0.2 kg/ha): 105%
- Green weight in relation to the controls [11]: 135%
- LD50 [12]: 1400 mg/kg
- Activity ([13]; 250 ppm): 70.4%
- Development ([13]; 250 ppm): 29.6%
- Activity ([13]; 500 ppm): 100.0%
- Development ([13]; 500 ppm): 0%
- Activity ([13]; 1000 ppm): 100.0%
- Development ([13]; 1000 ppm): 0%
- Green weight in relation to the controls ([14]; 0.1 kg/ha): 95%
- Green weight in relation to the controls ([14]; 0.2 kg/ha): 140%
- effect on houseflies compared with dichlorphon (in words) [15]: approximately the same effect as dichlorphon

Compound: C#CCON=C1CC2CCC1(C)C2(C)C (racemic) [new compound of the formula (I), 2-(proparglyoxyimino)-1,7,7-trimethyl-bicyclo[2,2,1]heptane]
- cholinesterase blocking effect [16]: absence of cholinesterase blocking effect
- speed of effect on more resistant test insects (in words) [17]: slower on more resistant test insects
- toxicity (in words) [18]: low toxicity; also recorded: superior to the known active agent with respect to its lower toxicity
